Source: patent US20090149482A1, “STEREOCHEMICALLY DEFINED DIPEPTIDE ESTERS OF ANTIVIRAL AGENTS FOR ENHANCED OCULAR TREATMENT” (priority 2001, published 2009)
Read-outs that look alike come from different tables or passages of the source.

Key:
in vitro [1] = settings: human
EBV = assay: In vitro antiviral screening, VCA Elisa; format: cell-based, epstein-barr virus; settings: for EC50: EBV, VCA Elisa
in vitro [2] = settings: human; remark: listed apart in the source
HCMV = assay: In vitro antiviral screening, CPE inhibition in HFF cells; format: cell-based, human cytomegalovirus; settings: for EC50: HCMV, CPE Inhibition
in vitro [3] = settings: male, New Zealand albino, rabbit, tissue homogenate
in vitro [4] = settings: human, Caco-2, pH 7.4
physchem = settings: buffer, pH 5.6
[5] = rabbits, i.v. infusion, aqueous humor
[6] = tested on: human fibroblast foreskin cells (HFF)
[7] = rat, in vivo, po
HSV-1 strain RE = assay: HSV-1 stromal keratitis rabbit model, topical treatment, SLE scores; format: in vivo; settings: 13 days post-inoculation, 1% topical
Description: (§1) The rabbit eye is an excellent model to study acute HSV-1 epithelial keratitis. Also, spontaneous and induced ocular HSV-1 shedding and corneal epithelial disease in rabbits has been used as a model of human ocular HSV-1 reactivation and recurrence. HSV-1 strain McKrae was used in studies for epithelial keratitis. HSV-1 strain RE was used for studies of HSV stromal keratitis.
ii) Stromal Keratitis: The experiment is similar to the part (i) experiment as far as the treatment cycles for all experimental drugs (TFT and Val-Val-ACV) are concerned. The effect of Val-Val-ACV on stromal keratitis induced by intrastromal injection with a high (20 μl of a 1×10^7 pfu/ml stock) titer of HSV-1RE strain was compared to that of TFT. Each compound at 1% concentration (TFT=33 mM, Val-Val-ACV=18.6 mM) was applied topically. The same scoring as noted in Table 4 is used for stromal keratitis. Emphasis is placed on the stromal edema and visibility into the aqueous chamber and the visualization of the pupil and iris.
A group of ten rabbits were used to study each compound. Both eyes of all rabbits were treated. Three to four groups of 10 rabbits are used in one experiment. This includes vehicle control, TFT, and the newly synthesized antiviral Val-Val-ACV.

HSV-1 strain McKrae = assay: HSV-1 epithelial keratitis rabbit model, topical treatment, SLE scores; format: in vivo; settings: 14 days post-inoculation, 1% topical 5 times per day
Description: as §1
i) Epithelial Keratitis: A group of ten rabbits was used to study each compound. Both eyes of all rabbits were used. An aqueous vehicle (like a placebo) and one positive control were obtained using 1% TFT (Viroptic®). Each compound at 1% concentration (TFT=33 mM, Gly-Gly-ACV=26.6 mM, Val-Val-ACV=18.6 mM) were applied (50 μl) topically 5 times per day every two hours starting at 8:00 a.m. and ending at 4:00 p.m. The treatment began on the 3rd post-inoculation day and continued for 5 consecutive days. Slit-lamp examinations were performed once every day for 8 days and thereafter once every other day until lesions resolved.

## CC(C)[C@H](N)C(=O)OCCOCn1cnc2c(=O)[nH]c(N)nc21 [Val-ACV, L-Valine-acyclovir]
In vitro [1]; CC50 (concentration required to inhibit cell proliferation by 50%), HSV-1
  CC50: > 277 µM
In vitro [1]; CC50, EBV column
  CC50: > 138 µM
In vitro [1]; CC50, HCMV column
  CC50: > 277 µM
In vitro [1]; CC50, HSV-2 column
  CC50: > 277 µM
In vitro [1]; CC50, VZV column
  CC50: > 100 µM
EBV
  SI (Selectivity Index) = CC50/EC50: SI > 250
EBV; human gammaherpesvirus 4
  EC50: 0.55 µM
In vitro [2]; Caco-2, pH 6
  Papp: 3.01 ± 0.21 ×10⁻⁶ cm/s
In vitro [2]; Caco-2, pH 7.4
  Papp: 5.67 ± 1.13 ×10⁻⁶ cm/s
HCMV
  SI (Selectivity Index) = CC50/EC50: SI > 9
HCMV; Human betaherpesvirus 5, HFF
  EC50: 30.8 µM
Caco-2 monolayers
  inhibition in transport in presence of Gly-Sar: 47 % inhibition
In vitro [3]; corneal half-life, corneal tissue
  half-life: 85.2 min
In vitro [3]; t1/2 of conversion to ACV, corneal tissue homogenate
  half-life: ~85 min
In vitro [4]
  half-life: 124 ± 8.3 min
physchem
  half-life: ~3 days

## CC(C)C(N)C(=O)NC(C(=O)OCCOCn1cnc2c(=O)[nH]c(N)nc21)C(C)C (stereo not drawn) [Val-Val-ACV, Val-Valacyclovir]
EBV
  EC50: 93.1 µM
HCMV
  EC50: > 186 µM
[5]
  MRT(aqueous): *188.39 min
[6]; EBV column
  CC50: > 93.1 µM
[6]; HCMV column
  CC50: > 186 µM
[6]; HSV-2 column
  CC50: > 186 µM
[6]; VZV column
  CC50: > 186 µM
[6]; read-out: CC50 (concentration required to inhibit cell proliferation by 50%), HSV-1
  CC50: > 186 µM
[7]
  amino acid intermediate metabolite after oral administration: no intact amino acid intermediate metabolite VACV could be detected
HSV-1 strain RE
  Concentration required to achieve an SLE Score of 0.2: 18.6 mM
HSV-1 strain McKrae
  Concentration required to achieve an SLE Score of 0.3: 18.6 mM
